Test results: patent US10653694B2, “Cytotoxic compounds which are inhibitors of the polymerisation of tubulin” (CENTRE NATIONAL DE LA RECHERCHE SCIENTIFIQUE (CNRS), priority 2014, dated 2020)
Where two headings read alike, the source gives them in different places.

Legend:
[1] = test system: HCT116 human cancer cell line (colorectal cancer); test: Cytotoxicity on HCT116 human cancer cell line (resazurin, 72 h); format: cell-based
Excerpt: (§1) Brown oil, 89%. Rf 0.3 (Cyclohexane/EtOAc, 7/3). IR (neat, cm^−1): 1609, 1593, 1564, 1428, 1205, 1157. ^1H NMR (300 MHz, CDCl3): 8.08 (d, 1H, J=8.2 Hz), 7.90 (d, 1H, J=8.4 Hz), 7.77-7.72 (ddd, 1H, J=8.2 Hz, J=6.9 Hz, J=1.3 Hz), 7.44 (ddd, 1H, J=8.3 Hz, J=7.0 Hz, J=1.0 Hz), 6.49 (d, 2H, J=2.2 Hz), 6.27 (t, 1H, J=2.2 Hz), 4.90 (q, 1H, J=6.9 Hz), 3.73 (s, 6H), 2.91 (s, 3H), 1.78 (d, 3H, J=6.9 Hz). ^13C NMR (75 MHz, CDCl3): 171.8, 163.8, 161.0 (2C), 150.7, 146.9, 133.2, 128.5, 126.6, 124.7, 121.6, 106.2 (2C), 98.0, 55.4 (2C), 43.4, 26.9, 21.1. m/z MS (APCI^+): 309 (M+H)^+. Cytotoxicity Protocol. U87, H1299 and MDA-MB231 cells are grown in Dulbecco minimal essential medium (DMEM) containing 4.5 g/L glucose and supplemented with 10% foetal calf serum and 1% glutamine. K562 and HCT116 cells are grown in RPMI 1640 medium containing 10% foetal calf serum and 1% glutamine. All the cell lines are maintained in culture at 37° C. in a humid atmosphere containing 5% CO2. The cells are inoculated in 96-well culture plates in an amount of 5000 cells per well in 50 μL of culture medium. After 24 hours of culture, the molecule to be tested, dissolved in DMSO and diluted 1/1000 in suitable culture medium, is added in each well in an amount of 50 μL per well. After 72 hours of incubation, 20 μL of resazurin is added in each well. After 1 hour of incubation, emitted fluorescence is measured at 590 nm after excitation at 560 nm using the Victor fluorescence reader (Perkin-Elmer, USA). Each concentration is tested three times and each experiment is repeated three times. Protocol for Inhibition of Polymerisation of Tubulin. When tubulin is placed at a temperature of 0° C., it is in the form of free dimers. […] The IPT of the various synthesized analogues was determined on a soluble tubulin according to the method of Shelanski^7 from sheep brains where it constitutes 20 to 25% of soluble proteins. The “antitubulin” activity is evaluated according to the method of Gaskin^8 by measuring turbidity, which is proportional to the microtubule concentration in the suspension. Turbidity is measured by absorption of the suspension at 350 nm using a spectrophotometer fitted with a cell thermostatically-controlled at 37° C. The various samples were dissolved in DMSO and incubated 10 minutes at 37° C. then 5 minutes at 0° C. The tubulin assembly and disassembly curves are obtained by absorption kinetics at 350 nm as a function of time. The IC50 determined graphically is defined as the concentration of inhibitor necessary to decrease by 50% the maximum rate of assembly of the control tubulin. In Vitro Biological Study of Compounds of the Present Invention
The cytotoxic activity of the compounds was studied in vitro principally on the HCT116 human cancer cell line (colorectal cancer). The line selected for this study was incubated at 37° C. in the presence of one of the compounds added in the culture medium at various concentrations. The inhibitory concentration inducing the death of 50% of the cells (IC50) was determined after 72 hours of incubation (Table 1) for each compound. The set of experiments carried out made it possible to determine the degree of toxicity of the compounds tested by taking isoCA-4 as the reference. […] Lastly, when these first results are examined, it appears that the reduction of the double bond located between the two aromatic nuclei yields “reduced” type II derivatives about 10 times less cytotoxic than their precursors I as we had already noted during the reduction of isoCA-4 derivatives to isoerianin-type derivatives.

[2] = test system: K562R imatinib-resistant chronic myeloid leukaemia line; test: Cytotoxicity on K562R line (72 h); format: cell-based; conditions: Homo sapiens, K-562R; Table 2; 50% cell death after 72 hours of incubation
Excerpt: Brown oil, 89%. Rf 0.3 (Cyclohexane/EtOAc, 7/3). IR (neat, cm^−1): 1609, 1593, 1564, 1428, 1205, 1157. ^1H NMR (300 MHz, CDCl3): 8.08 (d, 1H, J=8.2 Hz), 7.90 (d, 1H, J=8.4 Hz), 7.77-7.72 (ddd, 1H, J=8.2 Hz, J=6.9 Hz, J=1.3 Hz), 7.44 (ddd, 1H, J=8.3 Hz, J=7.0 Hz, J=1.0 Hz), 6.49 (d, 2H, J=2.2 Hz), 6.27 (t, 1H, J=2.2 Hz), 4.90 (q, 1H, J=6.9 Hz), 3.73 (s, 6H), 2.91 (s, 3H), 1.78 (d, 3H, J=6.9 Hz). ^13C NMR (75 MHz, CDCl3): 171.8, 163.8, 161.0 (2C), 150.7, 146.9, 133.2, 128.5, 126.6, 124.7, 121.6, 106.2 (2C), 98.0, 55.4 (2C), 43.4, 26.9, 21.1. m/z MS (APCI^+): 309 (M+H)^+. Cytotoxicity Protocol. U87, H1299 and MDA-MB231 cells are grown in Dulbecco minimal essential medium (DMEM) containing 4.5 g/L glucose and supplemented with 10% foetal calf serum and 1% glutamine. K562 and HCT116 cells are grown in RPMI 1640 medium containing 10% foetal calf serum and 1% glutamine. All the cell lines are maintained in culture at 37° C. in a humid atmosphere containing 5% CO2. The cells are inoculated in 96-well culture plates in an amount of 5000 cells per well in 50 μL of culture medium. After 24 hours of culture, the molecule to be tested, dissolved in DMSO and diluted 1/1000 in suitable culture medium, is added in each well in an amount of 50 μL per well. […] After 1 hour of incubation, emitted fluorescence is measured at 590 nm after excitation at 560 nm using the Victor fluorescence reader (Perkin-Elmer, USA). […] The IPT of the various synthesized analogues was determined on a soluble tubulin according to the method of Shelanski^7 from sheep brains where it constitutes 20 to 25% of soluble proteins. The “antitubulin” activity is evaluated according to the method of Gaskin^8 by measuring turbidity, which is proportional to the microtubule concentration in the suspension. Turbidity is measured by absorption of the suspension at 350 nm using a spectrophotometer fitted with a cell thermostatically-controlled at 37° C. […]
(§2) Compounds I-15, I-16 and I-19 were also evaluated on a K562 chronic myeloid leukaemia line and a K562R imatinib-resistant chronic myeloid leukaemia line.

tubulin = test: Inhibition of polymerisation of tubulin (IPT); format: biochemical, sheep; conditions: Table 3; inhibition of 50% of the maximum rate of assembly; tubulin 10 μM; read-out: IPT (IC50)
Excerpt: as §1
The most cytotoxic compounds were selected for tests of inhibition of polymerisation of tubulin. These tests were carried out under the direction of Dr J. Dubois at Gif-sur-Yvette, France. Tubulin is purified from ewe brains according to the method of Shelanski^9 by two assembly-disassembly cycles. The stock solution (15-20 mg/mL), stored at −196° C., is thawed and diluted in assembly buffer (0.1 M MES, 0.5 mM MgCl2, 1 mM EGTA, and 1 mM GTP, pH 6.6) to have a final concentration of 10 μM. Tubulin assembly is monitored by fluorescence on 96-well plates according to the method of Barron et al.^10 Inhibitor (DMSO, 1 μL) is added to the tubulin solution (10 μM, 100 μL per well) and the solution is incubated 45 minutes at room temperature. GTP (1 mM final) is then added, the solution is mixed rapidly and fluorescence (λex=350 nm, λem=440 nm) is measured on a Wallac Victor fluorometer (Perkin Elmer). The inhibition of 50% of the maximum rate of assembly (IC50) is determined in duplicate or triplicate on 10 concentrations bracketing the IC50.

[3] = test system: K562 (chronic myeloid leukaemia); test: Cytotoxicity on K562 line (resazurin, 72 h); format: cell-based; conditions: Homo sapiens, K562; Table 2; 50% cell death after 72 hours of incubation; read-out: K562 IC50
Excerpt: as §1, §2

[4] = in the presence of hepatocytes; cited from earlier work
[5] = test system: H1299 (non-small-cell lung cancer); test: Cytotoxicity on H1299 line (resazurin, 72 h); format: cell-based; conditions: Homo sapiens, NCI-H1299; Table 2; 50% cell death after 72 hours of incubation; read-out: H1299 IC50
Excerpt: as §1, §2

[6] = Homo sapiens, HCT-116, Table 1, concentration inducing 50% cell death after 72 hours of incubation, read-out: HCT116 IC50
[7] = Homo sapiens, HCT-116, 72 hours of incubation, read-out: IC50 (cytotoxicity, HCT116)
[8] = Homo sapiens, HCT-116, Table 2, 50% cell death after 72 hours of incubation, read-out: HCT116 IC50

In the case of `C=C(c1ccc(OC)c(OC)c1)c1nc(Cl)nc2ccccc12` [Compound I-11, 2-Chloro-4-[1-(3,4-dimethoxy-phenyl)-vinyl]-quinazoline], the IC50 [1, 6] is reported as 700 nM.
For `C=C(c1cc(OC)c(OC)c(OC)c1)c1nc(Cl)nc2ccccc12` [Compound I-12, 2-Chloro-4-[1-(3,4,5-trimethoxy-phenyl)-vinyl]-quinazoline], the melting point was 135 to 136 °C and the IC50 [1, 6] was 900 nM.
With `C=C(c1ccc(OC)c(C#CCO)c1)c1nc(C)nc2ccccc12` [Compound I-15, 3-(2-Methoxy-5-(1-(2-methylquinazolin-4-yl)vinyl)phenyl)prop-2-yn-1-ol] the IC50 [2] was no more than 1 nM, the IC50 (tubulin) was 1200 nM and the IC50 [3] was 8 nM. It also gave an IC50 [1, 7] of less than 20 nM and an IC50 [1, 8] of 1.5 nM.
Work on `C=C(c1ccc(OC)cc1)c1cc(C#N)nc2ccccc12` [Compound I-16, 4-(1-(4-Methoxyphenyl)vinyl)quinoline-2-carbonitrile] yielded an IC50 [2] of no more than 1 nM, an IC50 (tubulin) of 960 nM and an IC50 [3] of 9 nM. For the same compound, the IC50 [1, 7] was less than 20 nM and the IC50 [1, 8] was 1.6 nM.
For `C=C(c1ccc(OC)cc1)c1cc(Cl)c2ccccc2n1` [Compound I-17, 4-Chloro-2-(1-(4-methoxyphenyl)vinyl)quinoline], the IC50 [1, 6] was 95 nM.
With `C=C(c1ccc(OC)cc1)c1nc(C)cc2ccccc12` [Compound I-18, 1-(1-(4-Methoxyphenyl)vinyl)-3-methylisoquinoline] the IC50 [1, 6] was 87 nM.
For `C=C(c1ccc(OC)cc1)c1cc(C)nc2ccccc12` [Compound I-19, 4-(1-(4-Methoxyphenyl)vinyl)-2-methylquinoline], the IC50 [2] was 0.7 nM, the IC50 (tubulin) was 1090 nM and the IC50 [3] was 17 nM. It also gave an IC50 [1, 7] of less than 20 nM, an IC50 [1, 6] of no more than 1 nM and an IC50 ([1]; Table 2, 50% cell death after 72 hours of incubation, read-out: HCT116 IC50) of no more than 1 nM. For the same compound, the “cytotoxic activities (in words)” value ([1]; cell line not given) was “sub-nanomolar”.
With `COc1ccc(C(C)c2nc(C)nc3ccccc23)cc1` (centres unmarked) [II-1, 4-[1-(4-Methoxy-phenyl)-ethyl]-2-methyl-quinazoline] the IC50 [1, 6] was 250 nM.
`COc1ccc(C(C)c2nc(C)nc3ccccc23)cc1OC` (centres unmarked) [II-2, 4-[1-(3,4-Dimethoxy-phenyl)-ethyl]-2-methyl-quinazoline] showed an IC50 [1, 6] of 950 nM.
In the case of `C=C(c1ccc(OC)c(O)c1)c1cc(OC)c(OC)c(OC)c1` [isoCA-4, Isocombretastatin A-4, reference compound], the metabolized [4] is listed as less than 10%, the IC50 (tubulin) is listed as 1000 nM and the IC50 [3] is listed as 4 nM. It also gave an IC50 ([1]; Homo sapiens, HCT-116, 72 h, read-out: HCT116 IC50 (nM)) of 2 nM and an IC50 [5] of 5 nM.
